Converted amounts (≈) assume the structure as drawn. Where two headings read alike, the source gives them in different places. Non-standard residues stand in square brackets, D forms with d. Residues, ends and D or L forms follow the SMILES beside them. No end group written: not given here. hArg = N=C(N)NCCCC[C@H](N)C(=O)O; β3hR = N=C(N)NCCC[C@H](N)CC(=O)O; Agp = N=C(N)NC[C@H](N)C(=O)O; dOrn = NCCC[C@@H](N)C(=O)O; Orn = NCCC[C@H](N)C(=O)O
Legend:
M. luteus 10240 = assay: Growth inhibition assay (microdilution MIC); assay type: cell-based, Micrococcus luteus
Description: (§1) The minimum inhibitory concentrations (MIC) of the antimicrobial peptides and peptide derivatives were determined in microdilution assays. These used a continuous peptide dilution in sterile flat-bottomed 96-well microtiter plates (polystyrene, Greiner Bio-One GmbH, Frickenhausen, Germany) and a total volume of 100 μL per well. The aqueous peptide or peptidomimetic solutions were diluted with 1% TSB water, to obtain a final concentration of 256 μg/mL. 50 μL of the peptide or peptidomimetic solution was pipetted into the first well of each series and stirred. From this solution, 50 μL was transferred to the second well, stirred and again 50 μL was transferred to the next well, and so on. A double dilution series is obtained, beginning at 256 μg/mL in the first well to 125 ng/mL in the twelfth well. The bacteria, e.g. E. coli BL21 A1, were cultured overnight at 37° C. in nutrient broth (NB, Carl Roth GmbH+Co. KG, Karlsruhe, Germany). 50 μL of a 5×10^6 bacteria/mL suspension in 1% TSB was added to each well of the microtiter plate and thus a final concentration of the peptides or peptidomimetics from 128 μg/mL (well 1) to 62.5 ng/mL (well 12) was established in each series. The plates were incubated at 37° C. for 20 h and then the absorption was measured at 595 nm with a TECAN microtiter plate spectrophotometer (Tecan Trading AG, Mannedorf, Switzerland). The MIC values of all peptides and peptidomimetics were determined in triplicate. Sterile water was used as negative control. The MIC value represents the lowest peptide concentration at which no bacterial growth is observed after an incubation time of 20 h at 37° C.
(§2) The MIC values of the peptides and peptide derivatives against Escherichia coli BL21 A1 and Micrococcus luteus ATCC 10240 are given in Table 7.

E. coli BL21 A1 = assay type: cell-based, Escherichia coli
Description: as §1, §2

Compound | MIC M. luteus 10240 (M. luteus 10240; 10240, 20 h) | MIC E. coli BL21 A1 (E. coli BL21 A1; BL21, 20 h) | MIC M. luteus 10240 (M. luteus 10240; 1% TSB, 20 h at 37° C.) | MIC E. coli BL21 A1 (E. coli BL21 A1; 1% TSB, 20 h at 37° C.)
CC[C@H](C)[C@H](NC(=O)[C@H](CCCNC(=N)N)NC(=O)[C@H](CCCNC(=N)N)NC(=O)[C@@H]1CCCN1C(=O)[C@@H]1CCCN1C(=O)[C@H](CCCNC(=N)N)NC(=O)[C@@H]1CCCN1C(=O)[C@H](CCCNC(=N)N)NC(=O)[C@@H]1CCCN1C(=O)[C@H](CC(C)C)NC(=O)[C@H](Cc1ccc(O)cc1)NC(=O)[C@@H]1CCCN1C(=O)[C@@H]1CCCN1C(=O)[C@H](CCCCN)NC(=O)[C@H](CC(=O)O)NC(=O)[C@@H](N)C(C)C)C(=O)N[C@@H](Cc1ccc(O)cc1)C(=O)N[C@@H](CC(N)=O)C(=O)N[C@@H](CCCN)C(=O)N[C@@H](CC(N)=O)C(N)=O [compound 26] (H-VDKPPYLPRPRPPRRIYN[Orn]N-NH2) | 8 µg/mL (≈ 3.25 µM) | 8 µg/mL (≈ 3.25 µM) | – | –
CC[C@@H](C)[C@@H](NC(=O)[C@@H](CCCN)NC(=O)[C@@H](CCCNC(=N)N)NC(=O)[C@H]1CCCN1C(=O)[C@H]1CCCN1C(=O)[C@@H](CCCNC(=N)N)NC(=O)[C@H]1CCCN1C(=O)[C@@H](CCCNC(=N)N)NC(=O)[C@H]1CCCN1C(=O)[C@@H](CC(C)C)NC(=O)[C@@H](Cc1ccc(O)cc1)NC(=O)[C@H]1CCCN1C(=O)[C@H]1CCCN1C(=O)[C@@H](CCCCN)NC(=O)[C@@H](CC(=O)O)NC(=O)[C@H](N)C(C)C)C(=O)N[C@H](Cc1ccc(O)cc1)C(=O)N[C@H](CC(N)=O)C(=O)N[C@H](CCCN)C(N)=O [compound 116] (H-[dV][dD][dK][dP][dP][dY][dL][dP][dR][dP][dR][dP][dP][dR][dOrn][dI][dY][dN][dOrn]-NH2) | 32 µg/mL (≈ 13.9 µM) | 64 µg/mL (≈ 27.8 µM) | – | –
H-VDKPPYLPRPYPPRRIYNR-OH [compound 10] | 16 µg/mL | 128 µg/mL | – | –
CC[C@H](C)[C@H](NC(=O)C[C@H](CCCNC(=N)N)NC(=O)[C@H](CCCNC(=N)N)NC(=O)[C@@H]1CCCN1C(=O)[C@@H]1CCCN1C(=O)[C@H](CCCNC(=N)N)NC(=O)[C@@H]1CCCN1C(=O)[C@H](CCCNC(=N)N)NC(=O)[C@@H]1CCCN1C(=O)[C@H](CC(C)C)NC(=O)[C@H](Cc1ccc(O)cc1)NC(=O)[C@@H]1CCCN1C(=O)[C@@H]1CCCN1C(=O)[C@H](CCCCN)NC(=O)[C@H](CC(=O)O)NC(=O)[C@@H](N)C(C)C)C(=O)N[C@@H](Cc1ccc(O)cc1)C(=O)N[C@@H](CC(N)=O)C(=O)N[C@@H](CCCNC(=N)N)C(N)=O [compound 62] (H-VDKPPYLPRPRPPR[β3hR]IYNR-NH2) | 16 µg/mL (≈ 6.66 µM) | 4 µg/mL (≈ 1.66 µM) | – | –
CC[C@H](C)[C@H](NC(=O)[C@H](CCCN)NC(=O)[C@H](CCCNC(=N)N)NC(=O)[C@@H]1CCCN1C(=O)[C@@H]1CCCN1C(=O)[C@H](CCCNC(=N)N)NC(=O)[C@@H]1CCCN1C(=O)[C@H](CCCNC(=N)N)NC(=O)[C@@H]1CCCN1C(=O)[C@H](CC(C)C)NC(=O)[C@H](Cc1ccc(O)cc1)NC(=O)[C@@H]1CCCN1C(=O)[C@@H]1CCCN1C(=O)[C@H](CCCCN)NC(=O)[C@H](CC(=O)O)NC(=O)[C@@H](N)C(C)C)C(=O)N[C@@H](Cc1ccc(O)cc1)C(=O)N[C@@H](CC(N)=O)C(=O)N[C@@H](CNC(=N)N)C(N)=O [compound 69] (H-VDKPPYLPRPRPPR[Orn]IYN[Agp]-NH2) | 4 µg/mL (≈ 1.72 µM) | 4 µg/mL (≈ 1.72 µM) | – | –
H-VDKPPYLPRPRPPRRIYPQPRPPHPRL-NH2 [compound 49] | 4 µg/mL | 4 µg/mL | – | –
CC[C@H](C)[C@H](NC(=O)[C@H](CCCNC(=N)N)NC(=O)[C@H](CCCNC(=N)N)NC(=O)[C@@H]1CCCN1C(=O)[C@@H]1CCCN1C(=O)[C@H](CCCNC(=N)N)NC(=O)[C@@H]1CCCN1C(=O)[C@H](CCCNC(=N)N)NC(=O)[C@@H]1CCCN1C(=O)[C@H](CC(C)C)NC(=O)[C@H](Cc1ccc(O)cc1)NC(=O)[C@@H]1CCCN1C(=O)[C@@H]1CCCN1C(=O)[C@H](CCCCN)NC(=O)[C@H](CC(=O)O)NC(=O)[C@@H](N)C(C)C)C(=O)N[C@@H](Cc1ccc(O)cc1)C(=O)N[C@@H](CC(N)=O)C(=O)N[C@@H](CNC(=N)N)C(N)=O [compound 54] (H-VDKPPYLPRPRPPRRIYN[Agp]-NH2) | 8 µg/mL (≈ 3.39 µM) | 8 µg/mL (≈ 3.39 µM) | – | –
VDKPPYLPRPRPPRPIYNR-NH2 [compound 60] | 64 µg/mL | 8 µg/mL | – | –
VDKGSYLPRPTPPRPIYNRN-NH2 [compound 91] | – | 16 µg/mL | 128 µg/mL | –
CC[C@H](C)[C@H](NC(=O)[C@H](CCCCNC(=N)N)NC(=O)[C@H](CCCNC(=N)N)NC(=O)[C@@H]1CCCN1C(=O)[C@@H]1CCCN1C(=O)[C@H](CCCNC(=N)N)NC(=O)[C@@H]1CCCN1C(=O)[C@H](CCCNC(=N)N)NC(=O)[C@@H]1CCCN1C(=O)[C@H](CC(C)C)NC(=O)[C@H](Cc1ccc(O)cc1)NC(=O)[C@@H]1CCCN1C(=O)[C@@H]1CCCN1C(=O)[C@H](CCCCN)NC(=O)[C@H](CC(=O)O)NC(=O)[C@@H](N)C(C)C)C(=O)N[C@@H](Cc1ccc(O)cc1)C(=O)N[C@@H](CC(N)=O)C(=O)N[C@@H](CNC(=N)N)C(N)=O [compound 68] (H-VDKPPYLPRPRPPR[hArg]IYN[Agp]-NH2) | 4 µg/mL (≈ 1.68 µM) | 4 µg/mL (≈ 1.68 µM) | – | –
H-VDKPAYLPRPRPPRRIYNR-NH2 [compound 33] | 8 µg/mL | 8 µg/mL | – | –
95 ({RQIKIWFQNRRMKWKKC-Ac}-GNNRPVYIPQPRPPHPRL-OH; not fully specified (bridges); printed as RQIKIWFQNRRMKWKKC-(CH2CO-GNNRPVYIPQPRPPHPRL-OH)-; also: N-terminal CH2CO attached to Cys side chain of RQIKIWFQNRRMKWKKC-OH) [compound 95] | – | – | 8 µg/mL | 8 µg/mL
H-VEKPPYLPRPRPPRRIYNR-NH2 [compound 75] | 8 µg/mL | 16 µg/mL | – | –
H-VDKPPYIPRPRPPRRIYNR-NH2 [compound 77] | 8 µg/mL | 32 µg/mL | – | –
H-VDKPPYLPRPHPPRRIYNRN-OH [compound 9] | 16 µg/mL | 64 µg/mL | – | –
H-VDKPPYLPRPTPPRRIYNNR-OH [compound 4] | 64 µg/mL | 128 µg/mL | – | –
CC[C@H](C)[C@H](NC(=O)[C@H](CCCNC(=N)N)NC(=O)[C@H](CCCNC(=N)N)NC(=O)[C@@H]1CCCN1C(=O)[C@@H]1CCCN1C(=O)[C@H](CCCNC(=N)N)NC(=O)[C@@H]1CCCN1C(=O)[C@H](CCCNC(=N)N)NC(=O)[C@@H]1CCCN1C(=O)[C@H](CC(C)C)NC(=O)[C@H](Cc1ccc(O)cc1)NC(=O)[C@@H]1CCCN1C(=O)[C@@H]1CCCN1C(=O)[C@H](CCCCN)NC(=O)[C@H](CC(=O)O)NC(=O)[C@@H](NC(=O)[C@@H](CS)NC(=O)[C@H](C)N)C(C)C)C(=O)N[C@@H](Cc1ccc(O)cc1)C(=O)N[C@@H](CC(N)=O)C(=O)N[C@@H](CCCNC(=N)N)C(=O)O [compound 80] (H-A[dC]VDKPPYLPRPRPPRRIYNR-OH) | 16 µg/mL (≈ 6.24 µM) | >256 µg/mL | – | –
H-ADKPPYLPRPRPPRRIYNR-NH2 [compound 29] | 4 µg/mL | 8 µg/mL | – | –
H-VDKPPYLPRPRPPRRIANR-NH2 [compound 45] | 16 µg/mL | 8 µg/mL | – | –
H-VDKPPYLPRPPPPRRIYNNR-OH [compound 2] | 64 µg/mL | 128 µg/mL | – | –
H-VDKPPYLPRPQPPRRIYNR-OH [compound 12] | 64 µg/mL | 64 µg/mL | – | –
H-VAKPPYLPRPRPPRRIYNR-NH2 [compound 30] | 4 µg/mL | 16 µg/mL | – | –
H-VDKPPYLPRPRPPRHIYNH-NH2 [compound 64] | 32 µg/mL | 8 µg/mL | – | –

From patent publication US8686113B2 (priority 2009, dated 2014)
